Laboratory results from patent US8758816B2, “Compositions comprising azelastine and methods of use thereof” (priority 2004, dated 2014).

System: patients with seasonal allergic rhinitis (SAR)
Test: MP 428 study: individual symptom severity scores (runny nose, itchy nose, sneezing, congestion; 0-3 scale)
Assay type: in vivo, human
Conditions: Intent-to-Treat Population
Method: A two-week, randomized, double-blind study, which evaluated the effects of the co-administration of ASTELIN® (azelastine hydrochloride (HCl)) and FLONASE® (fluticasone propionate) compared to either product alone in patients with seasonal allergic rhinitis (SAR) was conducted during the 2006 Texas mountain cedar season. After a 5-day placebo lead-in period, 151 patients with moderate-to-severe allergic rhinitis symptoms were randomized to either: (1) (49 total patients) ASTELIN® (azelastine hydrochloride (HCl)) plus placebo saline nasal spray 2 sprays per nostril, 15 minutes apart, twice daily (AM & PM); (2) (50 total patients) FLONASE® (fluticasone propionate) plus placebo saline nasal spray, 2 sprays per nostril, 15 minutes apart, once daily (AM) and two sessions of placebo saline nasal spray, 2 sprays per nostril, 15 minutes apart (PM); or (3) (52 total patients) the co-administration of ASTELIN® (azelastine hydrochloride (HCl)) 2 sprays per nostril plus FLONASE® (fluticasone propionate) 2 sprays per nostril (AM), 15 minutes apart, and ASTELIN® (azelastine hydrochloride (HCl)) 2 sprays per nostril plus placebo saline nasal spray, 15 minutes apart, (PM) for a 2-week double-blind treatment period.
The primary efficacy variable was the change from baseline in the Total Nasal Symptom Score (TNSS), which comprised sneezing, itchy nose, runny nose, and nasal congestion (individual symptoms scores were assigned a value between 0 and 3, where 0=no symptoms and 3=severe symptoms). This study was not statistically designed to assess the differences between ASTELIN® and FLONASE®.
The results of the clinical trial are summarized and presented in Appendix A hereinbelow and in FIGS. 1-6. […] FIGS. 2-5 show the mean improvement in severity score (0-3 scale) from baseline for the symptoms of runny nose, itchy nose, sneezing and congestion, respectively.

CCC(=O)O[C@]1(C(=O)SCF)[C@H](C)C[C@H]2[C@@H]3C[C@H](F)C4=CC(=O)C=C[C@]4(C)[C@@]3(F)[C@@H](O)C[C@@]21C [Fluticasone, fluticasone propionate]
Change from Baseline in AM and PM Combined Nasal Symptom Score: Congestion, LS Mean (Day 9): −1.19
Change from Baseline in AM and PM Combined Nasal Symptom Score: Congestion, Mean (Day 9): −1.22
Change from Baseline in AM and PM Combined Nasal Symptom Score: Congestion, Median (Day 9): −1.27
Change from Baseline in AM and PM Combined Nasal Symptom Score: Itchy Nose, LS Mean (Day 9): −1.40
Change from Baseline in AM and PM Combined Nasal Symptom Score: Itchy Nose, Mean (Day 9): −1.35
Change from Baseline in AM and PM Combined Nasal Symptom Score: Itchy Nose, Median (Day 9): −1.30
Change from Baseline in AM and PM Combined Nasal Symptom Score: Runny Nose, LS Mean (Day 9): −1.18
Change from Baseline in AM and PM Combined Nasal Symptom Score: Runny Nose, Mean (Day 9): −1.21
Change from Baseline in AM and PM Combined Nasal Symptom Score: Runny Nose, Median (Day 9): −1.00
Change from Baseline in AM and PM Combined Nasal Symptom Score: Sneezing, LS Mean (Day 9): −1.40
Change from Baseline in AM and PM Combined Nasal Symptom Score: Sneezing, Mean (Day 9): −1.29
Change from Baseline in AM and PM Combined Nasal Symptom Score: Sneezing, Median (Day 9): −1.40
Percent Change from Baseline in AM and PM Combined Nasal Symptom Score: Congestion, LS Mean (Day 9): −22.17%
Percent Change from Baseline in AM and PM Combined Nasal Symptom Score: Congestion, Mean (Day 9): −22.28%
Percent Change from Baseline in AM and PM Combined Nasal Symptom Score: Congestion, Median (Day 9): −24.05%
Percent Change from Baseline in AM and PM Combined Nasal Symptom Score: Itchy Nose, LS Mean (Day 9): −29.96%
Percent Change from Baseline in AM and PM Combined Nasal Symptom Score: Itchy Nose, Mean (Day 9): −28.73%
Percent Change from Baseline in AM and PM Combined Nasal Symptom Score: Itchy Nose, Median (Day 9): −31.23%
Percent Change from Baseline in AM and PM Combined Nasal Symptom Score: Runny Nose, LS Mean (Day 9): −18.79%
Percent Change from Baseline in AM and PM Combined Nasal Symptom Score: Runny Nose, Mean (Day 9): −19.22%
Percent Change from Baseline in AM and PM Combined Nasal Symptom Score: Runny Nose, Median (Day 9): −16.67%
Percent Change from Baseline in AM and PM Combined Nasal Symptom Score: Sneezing, LS Mean (Day 9): −29.73%
Percent Change from Baseline in AM and PM Combined Nasal Symptom Score: Sneezing, Mean (Day 9): −28.22%
Percent Change from Baseline in AM and PM Combined Nasal Symptom Score: Sneezing, Median (Day 9): −32.58%
Change from Baseline in AM and PM Combined Nasal Symptom Score: Congestion, LS Mean (Day 10): −1.34
Change from Baseline in AM and PM Combined Nasal Symptom Score: Congestion, Mean (Day 10): −1.39
Change from Baseline in AM and PM Combined Nasal Symptom Score: Congestion, Median (Day 10): −1.50
Change from Baseline in AM and PM Combined Nasal Symptom Score: Itchy Nose, LS Mean (Day 10): −1.21
Change from Baseline in AM and PM Combined Nasal Symptom Score: Itchy Nose, Mean (Day 10): −1.19
Change from Baseline in AM and PM Combined Nasal Symptom Score: Itchy Nose, Median (Day 10): −1.00
Change from Baseline in AM and PM Combined Nasal Symptom Score: Runny Nose, LS Mean (Day 10): −1.52
Change from Baseline in AM and PM Combined Nasal Symptom Score: Runny Nose, Mean (Day 10): −1.54
Change from Baseline in AM and PM Combined Nasal Symptom Score: Runny Nose, Median (Day 10): −1.45
Change from Baseline in AM and PM Combined Nasal Symptom Score: Sneezing, LS Mean (Day 10): −1.57
Change from Baseline in AM and PM Combined Nasal Symptom Score: Sneezing, Mean (Day 10): −1.50
Change from Baseline in AM and PM Combined Nasal Symptom Score: Sneezing, Median (Day 10): −1.58
Percent Change from Baseline in AM and PM Combined Nasal Symptom Score: Congestion, LS Mean (Day 10): −24.97%
Percent Change from Baseline in AM and PM Combined Nasal Symptom Score: Congestion, Mean (Day 10): −25.31%
Percent Change from Baseline in AM and PM Combined Nasal Symptom Score: Congestion, Median (Day 10): −27.27%
Percent Change from Baseline in AM and PM Combined Nasal Symptom Score: Itchy Nose, LS Mean (Day 10): −23.04%
Percent Change from Baseline in AM and PM Combined Nasal Symptom Score: Itchy Nose, Mean (Day 10): −22.79%
Percent Change from Baseline in AM and PM Combined Nasal Symptom Score: Itchy Nose, Median (Day 10): −18.99%
Percent Change from Baseline in AM and PM Combined Nasal Symptom Score: Runny Nose, LS Mean (Day 10): −26.05%
Percent Change from Baseline in AM and PM Combined Nasal Symptom Score: Runny Nose, Mean (Day 10): −26.39%
Percent Change from Baseline in AM and PM Combined Nasal Symptom Score: Runny Nose, Median (Day 10): −29.13%
Percent Change from Baseline in AM and PM Combined Nasal Symptom Score: Sneezing, LS Mean (Day 10): −31.65%
Percent Change from Baseline in AM and PM Combined Nasal Symptom Score: Sneezing, Mean (Day 10): −31.17%
Percent Change from Baseline in AM and PM Combined Nasal Symptom Score: Sneezing, Median (Day 10): −33.33%
Change from Baseline in AM and PM Combined Nasal Symptom Score: Congestion, LS Mean (Day 11): −1.22
Change from Baseline in AM and PM Combined Nasal Symptom Score: Congestion, Mean (Day 11): −1.28
Change from Baseline in AM and PM Combined Nasal Symptom Score: Congestion, Median (Day 11): −1.27
Change from Baseline in AM and PM Combined Nasal Symptom Score: Itchy Nose, LS Mean (Day 11): −1.33
Change from Baseline in AM and PM Combined Nasal Symptom Score: Itchy Nose, Mean (Day 11): −1.29
Change from Baseline in AM and PM Combined Nasal Symptom Score: Itchy Nose, Median (Day 11): −1.08
Change from Baseline in AM and PM Combined Nasal Symptom Score: Runny Nose, LS Mean (Day 11): −1.51
Change from Baseline in AM and PM Combined Nasal Symptom Score: Runny Nose, Mean (Day 11): −1.54
Change from Baseline in AM and PM Combined Nasal Symptom Score: Runny Nose, Median (Day 11): −1.42
Change from Baseline in AM and PM Combined Nasal Symptom Score: Sneezing, LS Mean (Day 11): −1.78
Change from Baseline in AM and PM Combined Nasal Symptom Score: Sneezing, Mean (Day 11): −1.66
Change from Baseline in AM and PM Combined Nasal Symptom Score: Sneezing, Median (Day 11): −1.83
Percent Change from Baseline in AM and PM Combined Nasal Symptom Score: Congestion, LS Mean (Day 11): −22.54%
Percent Change from Baseline in AM and PM Combined Nasal Symptom Score: Congestion, Mean (Day 11): −23.45%
Percent Change from Baseline in AM and PM Combined Nasal Symptom Score: Congestion, Median (Day 11): −24.05%
Percent Change from Baseline in AM and PM Combined Nasal Symptom Score: Itchy Nose, LS Mean (Day 11): −26.56%
Percent Change from Baseline in AM and PM Combined Nasal Symptom Score: Itchy Nose, Mean (Day 11): −25.70%
Percent Change from Baseline in AM and PM Combined Nasal Symptom Score: Itchy Nose, Median (Day 11): −27.36%
Percent Change from Baseline in AM and PM Combined Nasal Symptom Score: Runny Nose, LS Mean (Day 11): −31.56%
Percent Change from Baseline in AM and PM Combined Nasal Symptom Score: Runny Nose, Mean (Day 11): −31.74%
Percent Change from Baseline in AM and PM Combined Nasal Symptom Score: Runny Nose, Median (Day 11): −33.33%
Percent Change from Baseline in AM and PM Combined Nasal Symptom Score: Sneezing, LS Mean (Day 11): −35.11%
Percent Change from Baseline in AM and PM Combined Nasal Symptom Score: Sneezing, Mean (Day 11): −33.52%
Percent Change from Baseline in AM and PM Combined Nasal Symptom Score: Sneezing, Median (Day 11): −36.05%
Change from Baseline in AM and PM Combined Nasal Symptom Score: Congestion, LS Mean (Day 12): −1.41
Change from Baseline in AM and PM Combined Nasal Symptom Score: Congestion, Mean (Day 12): −1.49
Change from Baseline in AM and PM Combined Nasal Symptom Score: Congestion, Median (Day 12): −1.55
Change from Baseline in AM and PM Combined Nasal Symptom Score: Itchy Nose, LS Mean (Day 12): −1.50
Change from Baseline in AM and PM Combined Nasal Symptom Score: Itchy Nose, Mean (Day 12): −1.48
Change from Baseline in AM and PM Combined Nasal Symptom Score: Itchy Nose, Median (Day 12): −1.17
Change from Baseline in AM and PM Combined Nasal Symptom Score: Runny Nose, LS Mean (Day 12): −1.54
Change from Baseline in AM and PM Combined Nasal Symptom Score: Runny Nose, Mean (Day 12): −1.58
Change from Baseline in AM and PM Combined Nasal Symptom Score: Runny Nose, Median (Day 12): −1.35
Change from Baseline in AM and PM Combined Nasal Symptom Score: Sneezing, LS Mean (Day 12): −1.68
Change from Baseline in AM and PM Combined Nasal Symptom Score: Sneezing, Mean (Day 12): −1.54
Change from Baseline in AM and PM Combined Nasal Symptom Score: Sneezing, Median (Day 12): −1.80
